Literature values, collected in US20030124112A1, “Use of a lacrophyl preparation in eye drops containing therpeutically active compounds” (priority 2000, published 2003).

Assays:
[1] = tested on: tear lysozyme; details: dropped in the eye, glaucome
[2] = 0.0001% benzalkonium-chloride, in vitro

effect on amount of tear lysozyme [1]	Molecule	effect on cells [2]
decrease of the amount of tear lysozyme	CC(C)(C)NC[C@H](O)COc1nsnc1N1CCOCC1 [timolol]	
decrease of the amount of tear lysozyme	CC(C)(C)NCC(O)COc1cccc2c1CCC(=O)N2 (stereo not drawn) [cartelol]	
	benzalkonium-chloride	causes cell death
